# According to PMC11939078, “TAK-994 mechanistic investigation into drug-induced liver injury” (Toxicological Sciences, 2025):
# pIC50: −log10 of the molar value. Like-named read-outs stand apart in the source and are kept apart here.
# How the values were obtained:
# [1] = tested on: patients with narcolepsy; conditions: in vivo
# [2] = tested on: participants; experiment: Phase I first-in-human study TAK-994-1001, safety; assay type: in vivo
# From the text: TAK-994 was considered to be well tolerated in phase I studies. […] Of 121 participants, 1 subject discontinued due to elevated alanine aminotransferase (ALT) with no other liver enzyme elevations. This event was considered mild in intensity and the participant recovered within 2 wk. No other clinically significant liver enzyme elevations were reported in phase I studies.
# [3] = tested on: HepG2 cells; experiment: HepG2 Glu/Gal 24-h cytotoxicity (mitochondrial toxicity); assay type: cell-based, human; conditions: glucose or galactose medium
# Procedure: Cytotoxicity of TAK-994 was evaluated in glucose or galactose medium after 24 h and in glucose medium after 72 h in HepG2 cells, with cryopreserved HepG2 cells thawed and seeded onto assay plates at 5,000 cells/well in glucose or galactose medium for the 24-h assay and at 2,500 cells/well in glucose medium for the 72-h assay. After ∼24 h of incubation at 37 °C in 5% CO2, the cells were incubated with test solutions under the same conditions for 24 h for the plate with 5,000 cells/well or 72 h for the plate with 2,500 cells/well. Cytotoxicity of TAK-994 was also assessed using HepG2 cells with CYP3A4 overexpression using a lentivirus vector. HepG2/CYP3A4 cells were incubated in media containing TAK-994 (0.09 to 200 μM), positive control aflatoxin B1 (0.04 to 80 μM), or 1.0% DMSO (negative control). In both cytotoxicity assays, adenosine triphosphate (ATP) content was assessed after incubation using a commercial luminescence assay (CellTiter-Glo; Promega Co., Ltd, WI, United States).
# HepG2 cells (American Type Culture Collection [ATCC, VA, USA]) were acclimated to Dulbecco's Modified Eagle Medium (DMEM; Thermo Fisher Scientific, MA, USA) with either high glucose or high galactose and containing 10% FBS for 1 week then cryopreserved. […] After the incubation, CellTiter-Glo® (Promega Co., Ltd., WI, USA) was added to the assay plates, cells were incubated for 30 minutes, and luminescence was recorded to measure the ATP content using an EnVision plate reader (PerkinElmer Co., Ltd., MA, USA). The test compound TAK-994 was evaluated at concentrations of 0.046, 0.14, 0.41, 1.2, 3.7, 11, 33, and 100 μM. Positive controls rotenone and staurosporine were purchased from FUJIFILM Wako Pure Chemical Corporation (Osaka, Japan) and evaluated at concentrations of 0.046, 0.14, 0.41, 1.2, 3.7, 11, 33, and 100 μM in DMSO (rotenone) or 0.0046, 0.014, 0.041, 0.12, 0.37, 1.1 , 3.3, and 10 μM in DMSO (staurosporine). […]
# [4] = tested on: Rat; experiment: Rat 26-week oral gavage toxicity study; assay type: in vivo; conditions: for Histopathological Liver Findings / ALT / AST / GLDH: rat 26-week; for ALT / AST / GLDH: mean (SD)
# From the text: TAK-994 performed well in tiered safety screening assays, with wide margins between in vitro IC50 and the predicted efficacious exposures (Table 1). […] Based on the safety profiles observed in these animal studies, TAK-994 progressed into phase I clinical trials.
# ^aAll dose levels had 15 animals per sex. No statistical difference was observed between the TAK-994 and control groups.
# [5] = tested on: human liver microtissues; experiment: LPS-sensitization assay in liver microtissues; assay type: cell-based; conditions: for pIC50: cellular ATP on Day 14
# Procedure: Six replicates were tested for each condition. […] Cellular ATP content was measured in the cell lysate on Day 14 of treatment. LDH release was measured on Days 5, 9, and 14 in the cell supernatant and normalized to lysed controls.
# Intracellular ATP content in model lysates was measured with the CellTiter-Glo® 2.0 Cell Viability Assay (Catalogue No. G9243, Promega). The Bioluminescent LDH Release Toxicity Assay Kit (Catalogue No. J2380, Promega) was used to assess extracellular LDH release and normalized to lysed controls. ATP, LDH, GSH, and triglycerides were measured according to internal technical operating procedures.
smiles,measurement,setting,value
CC(C)(O)C(=O)N1CC[C@H](NS(C)(=O)=O)[C@@H]1Cc1cccc(-c2cc(F)cc(F)c2)c1F.CC(C)(O)C(=O)N1CC[C@H](NS(C)(=O)=O)[C@@H]1Cc1cccc(-c2cc(F)cc(F)c2)c1F.O.O.O [TAK-994],onset of earliest Hy's Law case,[1],50 days
same,deaths or SAEs,[2]; TAK-994-1001,no deaths or SAEs were reported
same,subjects discontinued due to elevated ALT,[2]; of 121 participants,1
same,pIC50,[3],< 4.00
same,Histopathological Liver Findings,"[4]; female, 50 mg/kg",No adverse findings
same,ALT,"[4]; female, 50 mg/kg",35 (12) IU/L
same,AST,"[4]; female, 50 mg/kg",64 (38) IU/L
same,GLDH,"[4]; female, 50 mg/kg",41 (78) IU/L
same,Histopathological Liver Findings,"[4]; female, 150 mg/kg",No adverse findings
same,ALT,"[4]; female, 150 mg/kg",37 (8) IU/L
same,AST,"[4]; female, 150 mg/kg",53 (13) IU/L
same,GLDH,"[4]; female, 150 mg/kg",12 (14) IU/L
same,Histopathological Liver Findings,"[4]; female, 1000 mg/kg",No adverse findings
same,ALT,"[4]; female, 1000 mg/kg",44 (14) IU/L
same,AST,"[4]; female, 1000 mg/kg",51 (6) IU/L
same,GLDH,"[4]; female, 1000 mg/kg",6 (4) IU/L
same,Histopathological Liver Findings,"[4]; male, 50 mg/kg",No adverse findings
same,ALT,"[4]; male, 50 mg/kg",29 (6) IU/L
same,AST,"[4]; male, 50 mg/kg",53 (8) IU/L
same,GLDH,"[4]; male, 50 mg/kg",12 (8) IU/L
same,Histopathological Liver Findings,"[4]; male, 150 mg/kg",No adverse findings
same,ALT,"[4]; male, 150 mg/kg",38 (31) IU/L
same,AST,"[4]; male, 150 mg/kg",53 (11) IU/L
same,GLDH,"[4]; male, 150 mg/kg",12 (7) IU/L
same,Histopathological Liver Findings,"[4]; male, 1000 mg/kg",No adverse findings
same,ALT,"[4]; male, 1000 mg/kg",31 (7) IU/L
same,AST,"[4]; male, 1000 mg/kg",50 (11) IU/L
same,GLDH,"[4]; male, 1000 mg/kg",7 (4) IU/L
same,"adverse liver findings, chronic dose toxicity study","[4]; rats, 6-mo, up to the high dose tested of 1,000 mg/kg",no adverse liver findings
same,sensitization of liver microtissues by LPS (innate immune activation),[5],no direct innate immune-mediated toxicity was observed
same,pIC50,"[5]; read-out: IC50, liver microtissues + LPS (Fig. 5A)",< 4.00
same,pIC50,"[5]; read-out: IC50, liver microtissues without LPS (Fig. 5A)",< 4.00
